Tested on: SCPMA
Assay: In-water applied weed control, transplanted paddy rice, greenhouse (Example II)
Assay type: in vivo
Description: Evaluation of in-Water Applied Herbicidal Mixtures for Weed Control in Transplanted Paddy Rice
Weed seeds or nutlets of the desired test plant species were planted in puddled soil (mud) prepared by mixing a shredded, non-sterilized mineral soil (50.5 percent silt, 25.5 percent clay, and 24 percent sand, with a pH of about 7.6 and an organic matter content of about 2.9 percent) and water at a 1:1 volumetric ratio. The prepared mud was dispensed in 365 mL aliquots into 16-ounce (oz.) non-perforated plastic pots with a surface area of 86.59 square centimeters (cm^2) leaving a headspace of 3 centimeters (cm) in each pot. Mud was allowed to dry overnight prior to planting or transplanting. Rice seeds were planted in Sun Gro MetroMix® 306 planting mixture, which typically has a pH of 6.0 to 6.8 and an organic matter content of about 30 percent, in plastic plug trays. Seedlings at the second or third leaf stage of growth were transplanted into 840 mL of mud contained in 32-oz. non-perforated plastic pots with a surface area of 86.59 cm^2 4 days prior to herbicide application. The paddy was created by filling the headspace of the pots with 2.5 to 3 cm of water. When required to ensure good germination and healthy plants, a fungicide treatment and/or other chemical or physical treatment was applied. The plants were grown for 4-22 days in a greenhouse with an approximate 14 h photoperiod which was maintained at about 29′C during the day and 26° C. during the night. Nutrients were added as Osmocote® (19:6:12, N:P:K+ minor nutrients) at 2 g per 16-oz. pot and 4 g per 32-oz. pot. Water was added on a regular basis to maintain the paddy flood, and supplemental lighting was provided with overhead metal halide 1000-Watt lamps as necessary. The plants were employed for testing when they reached the first through fourth true leaf stage.
Treatments consisted of the acid or esters of 4-amino-3-chloro-5-fluoro-6-(4-chloro-2-fluoro-3-methoxy-phenyl)pyridine-2-carboxylic acid (compound A) each formulated as an SC (suspension concentrate) and various herbicidal components alone and in combination. Forms of compound A were applied on an acid equivalent basis.
Other herbicidal components were applied on an active ingredient basis and included 4-hydroxyphenyl pyruvate dioxygenase (HPPD)-inhibiting herbicides mesotrione formulated as Callisto®, sulcotrione formulated as Mikado®, pyrazolynate formulated as Sunbird® 10% GR, and benzobicyclon formulated as Benzobicyclon 3.5% or technical material.
Treatment requirements for each compound or herbicidal component were calculated based upon the rates being tested, the concentration of active ingredient or acid equivalent in the formulation, an application volume of 2 mL per component per pot, and an application area of 86.59 cm^2 per pot.
For formulated compounds, a measured amount was placed in an individual 100 or 200 mL glass vial and was dissolved in a volume of 1.25% (v/v) Agri-Dex® crop oil concentrate to obtain application solutions.
For technical grade compounds, a weighed amount was placed in an individual 100 to 200 mL glass vial and was dissolved in a volume of acetone to obtain concentrated stock solutions. […] The concentrated stock solutions obtained were diluted with an equivalent volume of an aqueous mixture containing 2.5% (v/v) crop oil concentrate so that the final application solutions contained 1.25% (v/v) crop oil concentrate.
Applications were made by injecting with a pipetter appropriate amounts of the application solutions, individually and sequentially, into the aqueous layer of the paddy. Control plants were treated in the same manner with the solvent blank. Applications were made so that all treated plant material received the same concentrations of acetone and crop oil concentrate.
The treated plants and control plants were placed in a greenhouse as described above and water was added as needed to maintain a paddy flood. […]

Measured: Visual Weed Control (%) - 21 DAA SCPMA Obs

COc1c(Cl)ccc(-c2nc(C(=O)OCc3ccccc3)c(Cl)c(N)c2F)c1F [Compound A Benzyl Ester, benzyl ester of 4-amino-3-chloro-5-fluoro-6-(4-chloro-2-fluoro-3-methoxy-phenyl)pyridine-2-carboxylic acid]
0%: 4.38 gae/ha | 8 gae/ha | 8.75 gae/ha | 16 gae/ha | 17.5 gae/ha | 32 gae/ha | 48 gae/ha | 96 gae/ha

COc1c(Cl)ccc(-c2nc(C(=O)O)c(Cl)c(N)c2F)c1F [Compound A Acid, 4-amino-3-chloro-6-(4-chloro-2-fluoro-3-methoxyphenyl)-5-fluoropyridine-2-carboxylic acid]
0%: 8.75 gae/ha | 17.5 gae/ha | 35 gae/ha

— patent publication US8841233B2, “Herbicidal compositions comprising 4-amino-3-chloro-5-fluoro-6-(4-chloro-2-fluoro-3-methoxyphenyl) pyridine-2-carboxylic acid or a derivative thereof and 4-hydroxyphenyl-pyruvate dioxygenase (HPPD) inhibitors” (Dow Agrosciences LLC, priority 2012, dated 2014)
